Data: patent publication US20240246960A1 (adMare Therapeutics Society, priority 2021, published 2024)

Tests used:
DNA-PK = target: T1, DNA-PK (Homo sapiens, UniProt P78527); assay: DNA-PK Assay for Biochemical Enzymatic Inhibition (ADP Glo Kinase assay); settings: Table 1
T1 construct: purchased Invitrogen PR9107A
Procedure, shortened: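 Human DNA-PK (25 ng) preincubated 15 min with compounds (ten three-fold dilutions) in HEPES pH 7.5, MgCl2, KCl, calf thymus DNA buffer, then substrate 434.4 μM and ATP 64.4 μM (final) for 60 min at room temperature. ADP-Glo luminescence; percent inhibition fitted by four-parameter regression for IC50.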

[1] = Hepatocyte stability assay, mouse hepatocytes; assay type: in vitro ADME; settings: for hepatocyte CLint at 1 uM: male, CD-1, mouse, cryopreserved hepatocytes, pH 7.3, 0.7 million cells per mL, 1 uM compound
Procedure, shortened: (§1)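 Pooled cryopreserved hepatocytes (male CD-1 mouse, or mixed-gender human donors; ≥10 each) at 0.7 million viable cells/mL in Krebs-Henseleit buffer pH 7.3, with 1 uM compound (≤0.01% DMSO). Incubated up to 2 h at 37 °C/5% CO2, quenched with acetonitrile; parent compound followed by HPLC-MS/MS peak area.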

[2] = Hepatocyte stability assay, human hepatocytes; assay type: in vitro ADME; settings: for hepatocyte CLint at 1 uM: both sexes, human, cryopreserved hepatocytes, pH 7.3, 0.7 million cells per mL, 1 uM compound
Procedure, shortened: as §1

[3] = Microsomal stability assay, mouse liver microsomes; settings: for microsomal CLint at 0.1 uM: male, CD-1, mouse, liver microsomes, pH 7.4, Microsomal Stability Mouse Clint, 0.1 mg/mL microsomes, 0.1 uM compound

Row | SMILES | IC50 (DNA-PK) [nM] | Hepatocyte Stability (mouse) % rem. 120 min [1] | hepatocyte CLint at 1 uM [1] [µL/min/1e6 cells] | Hepatocyte Stability (human) % rem. 120 min [2] | hepatocyte CLint at 1 uM [2] [µL/min/1e6 cells] | Microsomal Stability (mouse) % rem. 60 min [3] | microsomal CLint at 0.1 uM [3] [µL/min/mg]
1 | Cn1cnc2cnc(N[C@H]3CC[C@@H](Oc4nc(N5CCOCC5)cc5ncccc45)CC3)nc21 [Compound 88, 9-Methyl-N-((1s,4s)-4-((7-morpholino-1,6-naphthyridin-5-yl)oxy)cyclohexyl)-9H-purin-2-amine] | 0.5 to 1 | E (% remaining = 0-25%) | > 8.2 | E (% remaining = 0-25%) | > 8.2 |  | 
2 | c1cnc2cc(N3CCOCC3)nc(O[C@H]3CC[C@@H](Nc4ccn5nccc5n4)CC3)c2c1 [Compound 89, N-((1s,4s)-4-((7-Morpholino-1,6-naphthyridin-5-yl)oxy)cyclohexyl)pyrazolo[1,5-a]pyrimidin-5-amine] | 0.5 to 1 | F (% remaining = 25-50%) | > 8.2 | G (% remaining = 50-75%) | < 8.2 |  | 
3 | O=C(N[C@H]1CC[C@@H](Oc2nc(N3CCOCC3)cc3ncccc23)CC1)c1ccnnc1 [Compound 121, N-((1s,4s)-4-((7-morpholino-1,6-naphthyridin-5-yl)oxy)cyclohexyl)pyridazine-4-carboxamide] | 0.5 to 1 | G (% remaining = 50-75%) | < 8.2 | G (% remaining = 50-75%) | < 8.2 | H (% remaining = 75-100%) | < 116
4 | O=C(N[C@H]1CC[C@@H](Oc2nc(N3CCOCC3)cc3ncccc23)CC1)c1cc[nH]c1 [Compound 140, N-((1s,4s)-4-((7-morpholino-1,6-naphthyridin-5-yl)oxy)cyclohexyl)-1H-pyrrole-3-carboxamide] | < 0.5 | G (% remaining = 50-75%) | < 8.2 | H (% remaining = 75-100%) | < 8.2 | G (% remaining = 50-75%) | < 116
5 | O=C(N[C@H]1CC[C@@H](Oc2nc(N3CCOCC3)cc3ncccc23)CC1)c1ncco1 [Compound 142, N-((1s,4s)-4-((7-morpholino-1,6-naphthyridin-5-yl)oxy)cyclohexyl)oxazole-2-carboxamide] | 0.5 to 1 | F (% remaining = 25-50%) | > 8.2 | H (% remaining = 75-100%) | < 8.2 | G (% remaining = 50-75%) | < 116
6 | O=C(N[C@H]1CC[C@@H](Oc2nc(N3CCOCC3)cc3ncccc23)CC1)c1c[nH]cn1 [Compound 144, N-((1s,4s)-4-((7-morpholino-1,6-naphthyridin-5-yl)oxy)cyclohexyl)-1H-imidazole-4-carboxamide] | 0.5 to 1 | H (% remaining = 75-100%) | < 8.2 | H (% remaining = 75-100%) | < 8.2 | G (% remaining = 50-75%) | < 116
7 | CS(=O)(=O)Nc1cnc2cc(N3CCOCC3)nc(O[C@H]3CC[C@@H](Nc4ncccn4)CC3)c2c1 [Compound 185, N-(7-morpholino-5-(((1s,4s)-4-(pyrimidin-2-ylamino)cyclohexyl)oxy)-1,6-naphthyridin-3-yl)methanesulfonamide] | < 0.5 | G (% remaining = 50-75%) | < 8.2 | H (% remaining = 75-100%) | < 8.2 | G (% remaining = 50-75%) | < 116
8 | COc1cnc(N[C@H]2CC[C@@H](Oc3nc(N4CCOCC4)cc4ncc(NS(C)(=O)=O)cc34)CC2)nc1 [Compound 203, N-(5-(((1s,4s)-4-((5-methoxypyrimidin-2-yl)amino)cyclohexyl)oxy)-7-morpholino-1,6-naphthyridin-3-yl)methanesulfonamide] | < 0.5 | F (% remaining = 25-50%) | < 8.2 | G (% remaining = 50-75%) | < 8.2 |  | 
9 | CS(=O)(=O)Nc1cnc2cc(N3CCOCC3)nc(O[C@H]3CC[C@@H](NC(=O)c4ncco4)CC3)c2c1 [Compound 205, N-((1s,4s)-4-((3-(methylsulfonamido)-7-morpholino-1,6-naphthyridin-5-yl)oxy)cyclohexyl)oxazole-2-carboxamide] | 0.5 to 1 | H (% remaining = 75-100%) | < 8.2 | H (% remaining = 75-100%) | < 8.2 |  | 

Second part, the compound after the results:

Row | IC50 (DNA-PK) [nM] | Hepatocyte Stability (mouse) % rem. 120 min [1] | hepatocyte CLint at 1 uM [1] [µL/min/1e6 cells] | Hepatocyte Stability (human) % rem. 120 min [2] | hepatocyte CLint at 1 uM [2] [µL/min/1e6 cells] | Microsomal Stability (mouse) % rem. 60 min [3] | microsomal CLint at 0.1 uM [3] [µL/min/mg] | SMILES
10 | < 0.5 | F (% remaining = 25-50%) | > 8.2 | E (% remaining = 0-25%) | > 8.2 |  |  | c1cnc2cc(N3CCOCC3)nc(O[C@H]3CC[C@@H](Nc4ncnc5ccsc45)CC3)c2c1 [Compound 83, N-((1s,4s)-4-((7-morpholino-1,6-naphthyridin-5-yl)oxy)cyclohexyl)thieno[3,2-d]pyrimidin-4-amine]
11 | < 0.5 | F (% remaining = 25-50%) | > 8.2 | F (% remaining = 25-50%) | > 8.2 |  |  | c1cnc2cc(N3CCOCC3)nc(O[C@H]3CC[C@@H](Nc4ncc5sccc5n4)CC3)c2c1 [Compound 84, N-((1s,4s)-4-((7-Morpholino-1,6-naphthyridin-5-yl)oxy)cyclohexyl)thieno[3,2-d]pyrimidin-2-amine]
12 | < 0.5 | E (% remaining = 0-25%) | > 8.2 | E (% remaining = 0-25%) | > 8.2 |  |  | c1cnc2cc(N3CCOCC3)nc(O[C@H]3CC[C@@H](Nc4ncc5[nH]ccc5n4)CC3)c2c1 [Compound 85, N-((1s,4s)-4-((7-Morpholino-1,6-naphthyridin-5-yl)oxy)cyclohexyl)-5H-pyrrolo[3,2-d]pyrimidin-2-amine]
13 | < 0.5 | F (% remaining = 25-50%) | > 8.2 | G (% remaining = 50-75%) | < 8.2 |  |  | Cn1ccc2nc(N[C@H]3CC[C@@H](Oc4nc(N5CCOCC5)cc5ncccc45)CC3)ncc21 [Compound 87, 5-Methyl-N-((1s,4s)-4-((7-morpholino-1,6-naphthyridin-5-yl)oxy)cyclohexyl)-5H-pyrrolo[3,2-d]pyrimidin-2-amine]
14 | < 0.5 | G (% remaining = 50-75%) | < 8.2 | G (% remaining = 50-75%) | < 8.2 | F (% remaining = 25-50%) | > 116 | O=C(N[C@H]1CC[C@@H](Oc2nc(N3CCOCC3)cc3ncccc23)CC1)c1ccncc1 [Compound 113, N-((1s,4s)-4-((7-morpholino-1,6-naphthyridin-5-yl)oxy)cyclohexyl)isonicotinamide]
